Consider 11 compounds from ChEMBL document CHEMBL1201862, “PubChem BioAssay data set” (2004).

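All cell lines were grown in 96-well plates and treated with compound for 48 hours. Abbreviation: GI50, concentration required for 50% inhibition of growth.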 Active and inactive are the calls of the source. Cut-off read from the data, not from the text of the source: active = GI50 up to about 1.1 µM and inactive = higher.

Test systems include HCC 2998; MOLT-4; NCI-H23; Malme-3M; OVCAR-3; Hs-578T; U-251; OVCAR-4; NCI-H522; HCT-116; DU-145; NCI-H460; SNB-75; OVCAR-5; SN12C; MDA-MB-231; SF-268; SK-OV-3; SW-620; M14.
Test in all cases: growth of human tumour cells (NCI), 48 h

As to `CC(=O)c1ccc2c(c1)CC1(C2)Cc2cc3c(c(C(=O)O)c2C1)CCC3` (centres undefined), the GI50 with HCC 2998 is > 100 µM (inactive); with MOLT-4 it was > 100 µM (inactive); in the assay with NCI-H23, > 100 µM (inactive); in the assay with Malme-3M, 53.1 µM (inactive); in the assay on OVCAR-3, 92.5 µM (inactive); with Hs-578T, 33 µM (inactive). In addition, the GI50 in the assay on U-251 is 55.8 µM (inactive); in the assay on OVCAR-4 it was 78.7 µM (inactive); in the assay with NCI-H522 it was 79.6 µM (inactive); in the assay on HCT-116, > 100 µM (inactive); in the assay on DU-145, > 100 µM (inactive); with NCI-H460, 64.6 µM (inactive). Also, the GI50 in the assay on SNB-75 was 61.5 µM (inactive); in the assay with OVCAR-5, > 100 µM (inactive); in the assay with SN12C it was > 100 µM (inactive); in the assay with MDA-MB-231 it was > 100 µM (inactive); in the assay with SF-268 it was > 100 µM (inactive); in the assay with SK-OV-3, > 100 µM (inactive). For the same compound, the GI50 in the assay with SW-620 was > 100 µM (inactive).
For the compound `FC1=C2CCCCCC2SC1(F)F` (centres undefined), the GI50 in the assay on HCC 2998 was > 100 µM (inactive); in the assay on MOLT-4, 16.4 µM (inactive); in the assay with NCI-H23, > 100 µM (inactive); with Malme-3M it was 21.9 µM (inactive); in the assay on OVCAR-3 it was > 100 µM (inactive); in the assay with Hs-578T, > 100 µM (inactive). The GI50 with OVCAR-4 was > 100 µM (inactive); in the assay with NCI-H522 it was 15.6 µM (inactive); in the assay with HCT-116 it was 37.8 µM (inactive); in the assay with DU-145, > 100 µM (inactive); in the assay on SNB-75, > 100 µM (inactive); with M14, 30.7 µM (inactive). Also, the GI50 in the assay on OVCAR-5 was > 100 µM (inactive); with MDA-MB-231 it was 78.9 µM (inactive); in the assay with SF-268 it was > 100 µM (inactive); with SK-OV-3, > 100 µM (inactive); in the assay on SW-620 it was 14.8 µM (inactive).
Regarding `N=C(N)N/N=C\c1c(-c2ccccc2)nc2sccn12`, the GI50 was 4.54 µM (inactive) in the assay on HCC 2998; 18.5 µM (inactive) in the assay with MOLT-4; 12.5 µM (inactive) with NCI-H23; 16.3 µM (inactive) in the assay on Malme-3M; 14 µM (inactive) in the assay with Hs-578T; 15.2 µM (inactive) in the assay with U-251. The GI50 in the assay with OVCAR-4 was 15.8 µM (inactive); in the assay with NCI-H522, 12.1 µM (inactive); in the assay with HCT-116, 15.2 µM (inactive); in the assay with DU-145, 19 µM (inactive); with NCI-H460, 16.2 µM (inactive); in the assay with SNB-75, 12.2 µM (inactive). In addition, the GI50 in the assay with OVCAR-5 was 16.9 µM (inactive); with SN12C, 15.4 µM (inactive); with MDA-MB-231, 12.7 µM (inactive); with SF-268 it was 16.4 µM (inactive); in the assay on SK-OV-3, 19 µM (inactive); with SW-620 it was 12.9 µM (inactive).
As for `Cc1ccc(/C=C2\Cc3cccc(C)c3C2=O)c(C(=O)O)c1`, the GI50 was 39.1 µM (inactive) in the assay with HCC 2998; 48.2 µM (inactive) in the assay on MOLT-4; > 100 µM (inactive) with NCI-H23; > 100 µM (inactive) in the assay with Malme-3M; 94.2 µM (inactive) in the assay with OVCAR-3; > 100 µM (inactive) with Hs-578T. For the same compound, the GI50 in the assay on U-251 was 57.9 µM (inactive); in the assay with OVCAR-4, 21.1 µM (inactive); in the assay on NCI-H522, 22.3 µM (inactive); with HCT-116, 72.9 µM (inactive); with DU-145 it was > 100 µM (inactive); in the assay with NCI-H460 it was > 100 µM (inactive). The GI50 with SNB-75 was > 100 µM (inactive); in the assay with M14, > 100 µM (inactive); in the assay on OVCAR-5 it was > 100 µM (inactive); in the assay on SN12C it was > 100 µM (inactive); in the assay with MDA-MB-231, 66.2 µM (inactive); in the assay on SF-268, > 100 µM (inactive). Besides, the GI50 in the assay with SW-620 was > 100 µM (inactive).
Consider `CC1CC(C)C(O)C(C2CC(CC(=O)NC3CCCCC3)CC(=O)O2)C1` (centres undefined), for which the GI50 with HCC 2998, in the assay on MOLT-4, in the assay on NCI-H23, with Malme-3M, with OVCAR-3 and in the assay with Hs-578T was > 100 µM (inactive) in each case. Also, the GI50 with U-251, in the assay with OVCAR-4, with NCI-H522, with HCT-116, with DU-145 and in the assay with NCI-H460 was > 100 µM (inactive) throughout. Also, the GI50 with SNB-75 is > 100 µM (inactive); in the assay with M14, > 100 µM (inactive); in the assay with OVCAR-5, > 100 µM (inactive); in the assay on SN12C, 87.9 µM (inactive); with MDA-MB-231 it was > 100 µM (inactive); in the assay with SF-268, > 100 µM (inactive). In addition, the GI50 in the assay on SW-620 is > 100 µM (inactive).
For `O=C(NCCCCCCNC(=O)c1cccc2ccccc12)Nc1cccc2ccccc12`, the GI50 in the assay with HCC 2998, in the assay with MOLT-4, with NCI-H23, in the assay with Malme-3M, with OVCAR-3 and with Hs-578T was > 100 µM (inactive) in each case. The GI50 in the assay on U-251, in the assay with OVCAR-4, in the assay on NCI-H522, with HCT-116, in the assay on DU-145 and in the assay on NCI-H460 was > 100 µM (inactive) in each case. In addition, the GI50 with SNB-75, in the assay with M14, with OVCAR-5, with SN12C, with MDA-MB-231 and in the assay with SF-268 was > 100 µM (inactive) in each case. The GI50 with SW-620 was > 100 µM (inactive).
With `COc1cc(C)c2c(c1C=O)Oc1c(c(C)c(O)c3c1C(O)OC3=O)OC2=O` (centres undefined) [STICTIC ACID], the GI50 with HCC 2998 was 20.2 µM (inactive); in the assay on MOLT-4, 17.6 µM (inactive); in the assay on NCI-H23 it was 26.5 µM (inactive); in the assay with Malme-3M it was 20.7 µM (inactive); with OVCAR-3 it was 32.5 µM (inactive); in the assay with Hs-578T it was 36.8 µM (inactive). The GI50 with U-251 was 33.5 µM (inactive); in the assay with OVCAR-4, 25.5 µM (inactive); with NCI-H522 it was 24.9 µM (inactive); with HCT-116 it was 36.8 µM (inactive); in the assay with DU-145 it was 87.5 µM (inactive); in the assay with SNB-75 it was 26.6 µM (inactive). Further, the GI50 was 37.4 µM (inactive) with M14; > 100 µM (inactive) in the assay with OVCAR-5; > 100 µM (inactive) in the assay with SN12C; 23.3 µM (inactive) in the assay on MDA-MB-231; 21.4 µM (inactive) in the assay on SF-268; 49.5 µM (inactive) in the assay with SK-OV-3. Moreover, the GI50 in the assay with SW-620 is 57.9 µM (inactive).
As for `C1COC(NC(C2CC2)C2CC2)=N1` [RILMENIDINE], the GI50 with HCC 2998, in the assay on MOLT-4, with NCI-H23, in the assay with Malme-3M, with OVCAR-3 and with Hs-578T was > 100 µM (inactive) each time. Further, the GI50 with U-251, with OVCAR-4, in the assay with NCI-H522, in the assay on HCT-116, in the assay on DU-145 and with NCI-H460 was > 100 µM (inactive) each time. In addition, the GI50 was 31.1 µM (inactive) in the assay with SNB-75; > 100 µM (inactive) in the assay on M14; > 100 µM (inactive) with OVCAR-5; > 100 µM (inactive) in the assay with MDA-MB-231; > 100 µM (inactive) in the assay on SK-OV-3; > 100 µM (inactive) in the assay with SW-620.
In the case of `CCCN(CCC)C(=S)N/N=C/c1cccc(C)n1`, the GI50 in the assay on MOLT-4 was < 0.01 µM (active); in the assay with NCI-H23, 0.275 µM (active); in the assay on Malme-3M it was 0.697 µM (active); in the assay with OVCAR-3 it was < 0.01 µM (active); with Hs-578T, 2.16 µM (inactive); in the assay on U-251, < 0.01 µM (active). The GI50 was < 0.01 µM (active) in the assay on OVCAR-4; 0.0194 µM (active) in the assay with NCI-H522; < 0.01 µM (active) with HCT-116; 0.321 µM (active) in the assay on DU-145; 0.159 µM (active) in the assay with NCI-H460; 0.261 µM (active) in the assay with SNB-75. In addition, the GI50 was < 0.01 µM (active) in the assay with M14; < 0.01 µM (active) with OVCAR-5; 0.122 µM (active) with SN12C; < 0.01 µM (active) in the assay on MDA-MB-231; 0.023 µM (active) in the assay with SF-268; 0.718 µM (active) with SK-OV-3. The GI50 in the assay with SW-620 was 0.054 µM (active).
Take `O=C1CCc2ccccc2O1` [DIHYDROCOUMARIN]: the GI50 in the assay on HCC 2998, in the assay on MOLT-4, in the assay on NCI-H23, in the assay on Malme-3M, in the assay with OVCAR-3 and with Hs-578T was > 100 µM (inactive) throughout. The GI50 in the assay with U-251, in the assay on OVCAR-4, with NCI-H522, with HCT-116, with DU-145 and with NCI-H460 was > 100 µM (inactive) in each case. The GI50 in the assay with SNB-75, in the assay with OVCAR-5, in the assay on SN12C, with MDA-MB-231, in the assay with SF-268 and in the assay with SK-OV-3 was > 100 µM (inactive) throughout. Further, the GI50 in the assay with SW-620 is > 100 µM (inactive).
For the compound `CCCCc1ccc(Nc2nc(Cl)c3[nH]cnc3n2)cc1`, the GI50 in the assay with HCC 2998 was 25.5 µM (inactive); in the assay with MOLT-4, 20.4 µM (inactive); in the assay with NCI-H23, 17.7 µM (inactive); with Malme-3M, 19.3 µM (inactive); in the assay on OVCAR-3 it was 14.8 µM (inactive); in the assay on Hs-578T it was 24.5 µM (inactive). The GI50 with OVCAR-4 is 34.4 µM (inactive); in the assay with NCI-H522, 24.2 µM (inactive); with HCT-116, 16.3 µM (inactive); with DU-145, 17.9 µM (inactive); with SNB-75 it was 33 µM (inactive); with M14 it was 20.9 µM (inactive). The GI50 is 40.6 µM (inactive) with OVCAR-5; 22.4 µM (inactive) in the assay on SN12C; 16.6 µM (inactive) with MDA-MB-231; 22 µM (inactive) in the assay on SF-268; 34.3 µM (inactive) in the assay with SK-OV-3; 19.2 µM (inactive) in the assay with SW-620.
